In US8445501B2, “Substituted 7-carboxamido-pyrrolo[3,2-d]pyrimidines” (Takeda GmbH, priority 2008, dated 2013):

target: T1, human PDE5 (Homo sapiens, UniProt O76074); assay: Inhibition of the type 5 phosphodiesterase (PDE5) activity, modified SPA test with platelet lysate; assay type: biochemical; settings: PDE5 from human platelet lysate, 0.5 μM cGMP
T1 construct: from tissue; host or cells: platelets from fresh blood of human donors (lysate, 10,000 g supernatant)
Procedure, shortened: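 SPA-based cGMP hydrolysis, [3H]cGMP tracer in 0.5 μM cGMP, by sonicated human platelet lysate; motapizone (1 μM) and a PDE2 inhibitor (10 nM) block other PDEs. Reaction 15 min at 37 °C after 5 min preincubation, quenched with beads containing IBMX. IC50 from concentration-effect curves.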

IC50	Compound
0.209 nM	COCC(=O)N[C@H]1CC[C@H](NC(=O)c2c[nH]c3c(-c4c(OCC5CCC5)ccc5c4OCO5)ncnc23)CC1 [Example 128, trans-4-(5-Cyclobutylmethoxy-benzo[1,3]dioxol-4-yl)-5H-pyrrolo[3,2-d]pyrimidine-7-carboxylic acid [4-(2-methoxy-ethanoylamino)-cyclohexyl]-amide]
0.389 nM	CC(=O)N1CCC(NC(=O)c2c[nH]c3c(-c4c(OCC5CCC5)ccc5c4OCO5)ncnc23)CC1 [Example 129, 4-(5-Cyclobutylmethoxy-benzo[1,3]dioxol-4-yl)-5H-pyrrolo[3,2-d]pyrimidine-7-carboxylic acid (1-acetyl-piperidin-4-yl)-amide]
0.126 nM	O=C(NC1CCN(C(=O)C2CC2)CC1)c1c[nH]c2c(-c3c(OCC4CCC4)ccc4c3OCO4)ncnc12 [Example 130, 4-(5-Cyclobutylmethoxy-benzo[1,3]dioxol-4-yl)-5H-pyrrolo[3,2-d]pyrimidine-7-carboxylic acid [1-(1-cyclopropyl-methanoyl)-piperidin-4-yl]-amide]
0.49 nM	COCC(=O)N1CCC(NC(=O)c2c[nH]c3c(-c4c(OCC5CCC5)ccc5c4OCO5)ncnc23)CC1 [Example 131, 4-(5-Cyclobutylmethoxy-benzo[1,3]dioxol-4-yl)-5H-pyrrolo[3,2-d]pyrimidine-7-carboxylic acid [1-(2-methoxy-ethanoyl)-piperidin-4-yl]amide]
0.295 nM	CCOC(=O)N1CCC(NC(=O)c2c[nH]c3c(-c4c(OCC5CCC5)ccc5c4OCO5)ncnc23)CC1 [Example 132, 4-({1-[4-(5-Cyclobutylmethoxy-benzo[1,3]dioxol-4-yl)-5H-pyrrolo[3,2-d]pyrimidin-7-yl]-methanoyl}-amino)-piperidine-1-carboxylic acid ethyl ester]
0.631 nM	CCOc1ccc2c(c1-c1ncnc3c(C(=O)NC4CCN(C(=O)CC)CC4)c[nH]c13)OCO2 [Example 133, 4-(5-Ethoxy-benzo[1,3]dioxol-4-yl)-5H-pyrrolo[3,2-d]pyrimidine-7-carboxylic acid (1-propionyl-piperidin-4-yl)-amide]
0.347 nM	CCOC(=O)N1CCC(NC(=O)c2c[nH]c3c(-c4c(OCC)ccc5c4OCO5)ncnc23)CC1 [Example 134, 4-{[4-(5-Ethoxy-benzo[1,3]dioxol-4-yl)-5H-pyrrolo[3,2-d]pyrimidine-7-carbonyl]-amino}-piperidine-1-carboxylic acid ethyl ester]
2 nM	CCOc1ccc2c(c1-c1ncnc3c(C(=O)NC4CCN(C(=O)COC)CC4)c[nH]c13)OCO2 [Example 135, 4-(5-Ethoxy-benzo[1,3]dioxol-4-yl)-5H-pyrrolo[3,2-d]pyrimidine-7-carboxylic acid [1-(2-methoxy-acetyl)piperidin-4-yl]-amide]
3.72 nM	CCOc1ccc2c(c1-c1ncnc3c(C(=O)N[C@@H]4CCN(C(=O)CC)C4)c[nH]c13)OCO2 [Example 136, 4-(5-Ethoxy-benzo[1,3]dioxol-4-yl)-5H-pyrrolo[3,2-d]pyrimidine-7-carboxylic acid ((R)-1-propionyl-pyrrolidin-3-yl)-amide]
2.24 nM	CCOC(=O)N1CC[C@@H](NC(=O)c2c[nH]c3c(-c4c(OCC)ccc5c4OCO5)ncnc23)C1 [Example 137, (R)-3-{[4-(5-Ethoxy-benzo[1,3]dioxol-4-yl)-5H-pyrrolo[3,2-d]pyrimidine-7-carbonyl]-amino}-pyrrolidine-1-carboxylic acid ethyl ester]
6.03 nM	CCOc1ccc2c(c1-c1ncnc3c(C(=O)N[C@@H]4CCN(C(=O)COC)C4)c[nH]c13)OCO2 [Example 138]
0.204 nM	CCCOc1ccc2c(c1-c1ncnc3c(C(=O)NC4CCN(C(=O)CC)CC4)c[nH]c13)OCO2 [Example 139, 4-(5-Propoxy-benzo[1,3]dioxol-4-yl)-5H-pyrrolo[3,2-d]pyrimidine-7-carboxylic acid (1-propionyl-piperidin-4-yl)-amide]
0.148 nM	CCCOc1ccc2c(c1-c1ncnc3c(C(=O)NC4CCN(C(=O)OCC)CC4)c[nH]c13)OCO2 [Example 140, 4-{[4-(5-Propoxy-benzo[1,3]dioxol-4-yl)-5H-pyrrolo[3,2-d]pyrimidine-7-carbonyl]-amino}-piperidine-1-carboxylic acid ethyl ester]
0.933 nM	CCCOc1ccc2c(c1-c1ncnc3c(C(=O)N[C@@H]4CCN(C(=O)CC)C4)c[nH]c13)OCO2 [Example 141, 4-(5-Propoxy-benzo[1,3]dioxol-4-yl)-5H-pyrrolo[3,2-d]pyrimidine-7-carboxylic acid ((R)-1-propionyl-pyrrolidin-3-yl)-amide]
0.617 nM	CCCOc1ccc2c(c1-c1ncnc3c(C(=O)N[C@@H]4CCN(C(=O)OCC)C4)c[nH]c13)OCO2 [Example 142, (R)-3-{[4-(5-Propoxy-benzo[1,3]dioxol-4-yl)-5H-pyrrolo[3,2-d]pyrimidine-7-carbonyl]amino}-pyrrolidine-1-carboxylic acid ethyl ester]
1.51 nM	CCCOc1ccc2c(c1-c1ncnc3c(C(=O)N[C@@H]4CCN(C(=O)COC)C4)c[nH]c13)OCO2 [Example 143, 4-(5-Propoxy-benzo[1,3]dioxol-4-yl)-5H-pyrrolo[3,2-d]pyrimidine-7-carboxylic acid [(R)-1-(2-methoxy-acetyl)-pyrrolidin-3-yl]amide]
14.5 nM	COCCOc1cc(OC)ccc1-c1ncnc2c(C(=O)N[C@H]3CC[C@@H](NC(C)=O)CC3)c[nH]c12 [Example 152, cis-4-[4-Methoxy-2-(2-methoxy-ethoxy)-phenyl]-5H-pyrrolo[3,2-d]pyrimidine-7-carboxylic acid (4-acetylamino-cyclohexyl)-amide]
6.17 nM	COCCOc1cc(OC)ccc1-c1ncnc2c(C(=O)N[C@H]3CC[C@@H](NC(=O)C4CC4)CC3)c[nH]c12 [Example 153, cis-4-[4-Methoxy-2-(2-methoxy-ethoxy)-phenyl]-5H-pyrrolo[3,2-d]pyrimidine-7-carboxylic acid [4-(cyclopropanecarbonyl-amino)cyclohexyl]-amide]
17 nM	COCCOc1cc(OC)ccc1-c1ncnc2c(C(=O)N[C@H]3CC[C@@H](NC(=O)COC)CC3)c[nH]c12 [Example 154, cis-4-[4-Methoxy-2-(2-methoxy-ethoxy)-phenyl]-5H-pyrrolo[3,2-d]pyrimidine-7-carboxylic acid [4-(2-methoxy-acetylamino)-cyclohexyl]-amide]
9.55 nM	COCCOc1cc(OC)ccc1-c1ncnc2c(C(=O)N[C@H]3CC[C@H](NC(C)=O)CC3)c[nH]c12 [Example 155, trans-4-[4-Methoxy-2-(2-methoxy-ethoxy)-phenyl]-5H-pyrrolo[3,2-d]pyrimidine-7-carboxylic acid (4-acetylamino-cyclohexyl)-amide]
6.61 nM	COCCOc1cc(OC)ccc1-c1ncnc2c(C(=O)N[C@H]3CC[C@H](NC(=O)C4CC4)CC3)c[nH]c12 [Example 156, trans-4-[4-Methoxy-2-(2-methoxy-ethoxy)-phenyl]-5H-pyrrolo[3,2-d]pyrimidine-7-carboxylic acid [4-(cyclopropanecarbonyl-amino)cyclohexyl]-amide]
15.5 nM	COCCOc1cc(OC)ccc1-c1ncnc2c(C(=O)N[C@H]3CC[C@H](NC(=O)COC)CC3)c[nH]c12 [Example 157, trans-4-[4-Methoxy-2-(2-methoxy-ethoxy)-phenyl]-5H-pyrrolo[3,2-d]pyrimidine-7-carboxylic acid [4-(2-methoxy-acetylamino)-cyclohexyl]-amide]

Compound	IC50
CCCCOc1ccc2c(c1-c1ncnc3c(C(=O)NC4CCN(C(=O)CC)CC4)c[nH]c13)OCO2 [Example 144, 4-(5-Butoxy-benzo[1,3]dioxol-4-yl)-5H-pyrrolo[3,2-d]pyrimidine-7-carboxylic acid (1-propionyl-piperidin-4-yl)-amide]	0.115 nM
CCCCOc1ccc2c(c1-c1ncnc3c(C(=O)NC4CCN(C(=O)OCC)CC4)c[nH]c13)OCO2 [Example 145, 4-{[4-(5-Butoxy-benzo[1,3]dioxol-4-yl)-5H-pyrrolo[3,2-d]pyrimidine-7-carbonyl]-amino}-piperidine-1-carboxylic acid ethyl ester]	0.1 nM
CCCCOc1ccc2c(c1-c1ncnc3c(C(=O)NC4CCN(C=O)CC4)c[nH]c13)OCO2 [Example 146, 4-(5-Butoxy-benzo[1,3]dioxol-4-yl)-5H-pyrrolo[3,2-d]pyrimidine-7-carboxylic acid (1-formyl-piperidin-4-yl)-amide]	0.229 nM
CCCCOc1ccc2c(c1-c1ncnc3c(C(=O)NC4CCCN(C(=O)CC)C4)c[nH]c13)OCO2 (stereo not drawn) [Example 147, 4-(5-Butoxy-benzo[1,3]dioxol-4-yl)-5H-pyrrolo[3,2-d]pyrimidine-7-carboxylic acid (1-propionyl-piperidin-3-yl)-amide]	0.24 nM
CCCCOc1ccc2c(c1-c1ncnc3c(C(=O)NC4CCCN(C(=O)OCC)C4)c[nH]c13)OCO2 (stereo not drawn) [Example 148, 3-{[4-(5-Butoxy-benzo[1,3]dioxol-4-yl)-5H-pyrrolo[3,2-d]pyrimidine-7-carbonyl]-amino}-piperidine-1-carboxylic acid ethyl ester]	0.407 nM
CCCCOc1ccc2c(c1-c1ncnc3c(C(=O)NC4CCCN(C(=O)COC)C4)c[nH]c13)OCO2 (stereo not drawn) [Example 149, 4-(5-Butoxy-benzo[1,3]dioxol-4-yl)-5H-pyrrolo[3,2-d]pyrimidine-7-carboxylic acid [1-(2-methoxy-acetyl)piperidin-3-yl]-amide]	0.295 nM
CCCCOc1ccc2c(c1-c1ncnc3c(C(=O)N[C@@H]4CCN(C(=O)CC)C4)c[nH]c13)OCO2 [Example 150, 4-(5-Butoxy-benzo[1,3]dioxol-4-yl)-5H-pyrrolo[3,2-d]pyrimidine-7-carboxylic acid ((R)-1-propionyl-pyrrolidin-3-yl)-amide]	0.389 nM
CCCCOc1ccc2c(c1-c1ncnc3c(C(=O)N[C@@H]4CCN(C(=O)OCC)C4)c[nH]c13)OCO2 [Example 151, (R)-3-{[4-(5-Butoxy-benzo[1,3]dioxol-4-yl)-5H-pyrrolo[3,2-d]pyrimidine-7-carbonyl]amino}-pyrrolidine-1-carboxylic acid ethyl ester]	0.295 nM
